Laboratory results: patent US20030166005A1, “Test system for determining the activity of cyclo-nucleotide-dependent protein kinases and vasp phosphatases” (priority 2000, published 2003)

Assays:
cGK [1] = target: T1, cGK (Homo sapiens, UniProt Q13976); test: biochemical
T1 sequence (Q13976 1-671): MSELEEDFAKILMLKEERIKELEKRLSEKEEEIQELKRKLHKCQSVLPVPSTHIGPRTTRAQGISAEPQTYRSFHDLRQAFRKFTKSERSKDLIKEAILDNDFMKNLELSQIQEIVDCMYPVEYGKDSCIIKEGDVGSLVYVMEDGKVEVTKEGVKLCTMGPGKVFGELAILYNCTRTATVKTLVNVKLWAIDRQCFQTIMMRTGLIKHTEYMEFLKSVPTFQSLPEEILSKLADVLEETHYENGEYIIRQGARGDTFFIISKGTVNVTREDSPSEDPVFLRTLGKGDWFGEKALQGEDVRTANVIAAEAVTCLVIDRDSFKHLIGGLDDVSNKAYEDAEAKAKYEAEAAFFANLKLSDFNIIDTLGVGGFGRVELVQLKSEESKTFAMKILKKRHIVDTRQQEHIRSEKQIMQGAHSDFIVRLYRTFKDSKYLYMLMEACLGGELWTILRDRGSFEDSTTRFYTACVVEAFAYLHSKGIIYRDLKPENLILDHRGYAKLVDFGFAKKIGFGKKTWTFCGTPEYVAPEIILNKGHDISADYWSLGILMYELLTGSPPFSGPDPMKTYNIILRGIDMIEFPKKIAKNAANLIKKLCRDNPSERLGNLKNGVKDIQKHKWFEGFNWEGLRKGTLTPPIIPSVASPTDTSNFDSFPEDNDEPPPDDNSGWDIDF
Description: Instead of carrying out a kinase reaction for the purpose of establishing and optimizing the detection system, a synthetic phosphopeptide (phosphorylated version of the VASP substrate peptide) was used as the “reaction product” and was quantified using a detection mix. In order to ascertain the linear measurement range, different mixtures of unphosphorylated peptide and phosphopeptide were prepared. When so doing, the total concentration of peptide was kept constant at 500 nmol/l. 50 μl of these mixtures were added to the wells of a 96-well microtest plate and in each case treated with 200 μl of a detection mix which contained the following reagents diluted in PBS:
The time-resolved FRET signal, when exciting the europium fluorescence at 340 nm and measuring the emission of the APC fluorescence at 660 nm, was measured, after incubating at 20° C. for 1 hour, using a PerkinElmer Wallac fluorescence-measuring instrument (Victor^2).
After the tubes had been preincubated at 30° C. for 5 minutes, the kinase reaction was started with 50 μmol of ATP/l, with subsequent incubation being at 30° C. All the above-mentioned concentrations are to be understood as meaning final concentrations in a volume of 500 μl. […] The phosphorylated substrate peptide was detected, as described in Example 1, in the wells of a 384-well microtest plate. […]

cGK [2] = target: T1, cGK; test: Influence of DMSO on the enzyme activity in the test system; type: biochemical; details: for Enzyme activity in cps/min: incubation period 10 min
Description: Most substances which are tested in an HTS are preferably dissolved in DMSO. However, many enzymes or test systems are very sensitive to DMSO. In order to determine the influence of DMSO on the test system according to the invention, phosphorylation kinetics, as described in Example 2 (cf. FIG. 2), were carried out in the presence of 0, 5, 10, 15 and 20% DMSO.

Nc1nc(=O)c2nc(Sc3ccc(Cl)cc3)n([C@@H]3O[C@@H]4COP(=O)(O)O[C@H]4[C@H]3O)c2[nH]1 [8-pCPT-cGMP]
EC50 (cGK [1]): 100 nM

C[S+](C)[O-] [DMSO, dimethyl sulfoxide]
Enzyme activity in cps/min (cGK [2]; 5 percent by volume of DMSO): 2282 cps/min | Enzyme activity in cps/min (cGK [2]; 10 percent by volume of DMSO): 2253 cps/min | Enzyme activity in cps/min (cGK [2]; 15 percent by volume of DMSO): 2218 cps/min | Enzyme activity in cps/min (cGK [2]; 20 percent by volume of DMSO): 1988 cps/min | influence on the reaction (cGK [2]; up to 20 percent by volume of DMSO): no significant influence
